Source: patent publication US20250012803A1, “METHODS FOR ASSESSING AN IMMUNE RESPONSE AND PREDICTING CANCER RECURRENCE AND ASSESSMENT OF CURRENT AND PRIOR CANCER STATUS” (priority 2021, published 2025)
“And” between values parts separate entries of the source, which are not always exact repeats. Identical values can stand only once.

How the values were obtained:
Type in all cases: in vivo, human
[1] = tested on: node-positive and high-risk node-negative breast cancer patients with tumors expressing any degree of HER2; test: Phase IIb trial (NCT00524277): disease-free survival / breast cancer recurrence
Method: Background for Examples 1-5: Delayed type hypersensitivity (DTH) skin tests in the randomized, active-controlled, single-blinded, multicenter Phase IIb trial investigating GLSI-100 (GP2+GM-CSF) administered in the adjuvant setting to node-positive and high-risk node-negative breast cancer patients with tumors expressing any degree of HER2 (immuno-histochemistry [IHC] 1-3+) (NCT00524277) were analyzed. The trial enrolled HLA-A*02 patients randomized to receive GLSI-100 versus GM-CSF alone. The trial's primary objective was to determine if treatment with GLSI-100, a HER2-derived peptide, reduces recurrence rates.
(§1) Methods: Consented patients were randomized and scheduled to receive GLSI-100 (500 microgram (mcg) GP2: 125 mcg GM-CSF) or control (GM-CSF only) via 6 intradermal injections every 3-4 weeks as part of the Primary Immunization Series (PIS) for the first 6 months and 4 booster intradermal injections every 6 months thereafter. […] DTH skin tests were assessed at baseline and after the 6th dose with the orthogonal mean of each skin reaction measured 48-72 hours after injection using the sensitive ballpoint-pen method.
Results: The study enrolled 180 patients across 16 clinical sites with both HER2 3+ positive and low HER2 expressors (1-2+). […] Injection site reactions were common, occurring in almost 100% of patients treated with either GLSI-100 or GM-CSF alone. […]

[2] = tested on: breast cancer patients (DTH immune response to GP2); test: Delayed type hypersensitivity (DTH) skin test to GP2
Method: as §1
(§2) A DTH reaction was used to assess in vivo immune responses in patients (n=150) prior to exposure to study medication and after 6 months of the first dose. The DTH orthogonal mean was measured 48-72 hours after injection using the sensitive ballpoint-pen method. DTH reactions after the PIS were greater compared to baseline DTH reactions.
as §2, with “method. GP2” for “method.”, “response increases in patients” for “reactions”, “treatment with GLSI-100.” for “the PIS were greater compared to baseline DTH reactions.”
Injection site reactions (ISR) were measured 48-72 hours after injection. Delayed-type hypersensitivity (DTH) to GP2 was performed at baseline and after 6 months of treatment. For the DTH test, 0.5 mL consisting of 100 mcg of GP2 reconstituted in bacteriostatic saline for injection was placed intradermally. The DTH reaction was measured 48-72 hours after injection.
The orthogonal mean of the largest diameter of the injection site was measured 48-72 hours after injection. A DTH reaction was used to assess in vivo immune responses in patients prior to exposure to study medication and after 6 months of the first dose. The DTH orthogonal mean was measured 48-72 hours after DTH placement using the sensitive ballpoint-pen method. DTH reactions increase after the PIS compared to baseline DTH reactions.
GP2 DTH skin tests were placed at baseline and after the 6th dose. After 48-72 hours, the largest perpendicular diameters of induration were measured and the orthogonal mean was calculated. Induration of over 5 mm was considered a positive response. The relationship between prognostic factors such as demographic and disease characteristics and the baseline DTH response were investigated by logistic regression.

[3] = tested on: breast cancer patients (injection site); test: Injection site reaction (ISR) measurement, orthogonal mean
breast cancer patients = test: Phase IIb trial safety / tolerability; conditions: patients treated with either GLSI-100 or GM-CSF alone
Method: as §1
Results: The study enrolled 180 patients across 16 clinical sites with both HER2 3+ positive and low HER2 expressors (1-2+). […] Injection site reactions were common, occurring in almost 100% of patients treated with either GLSI-100 or GM-CSF alone. Previous publications have reported the increase in DTH response reported among patients after treatment with GLSI-100.

| Substance | Kaplan-Meier estimated 5-year disease-free survival (DFS) rate ([1]; HER2 3+ patients followed 6 months or more and disease-free over first 6 months, 5 years follow-up, p=0.0338) [%] | DTH reaction after the Primary Immunization Series (orthogonal mean) ([2]; after 6 months, measured 48-72 hours after injection, p=0.009) [mm] | median orthogonal mean induration of injection site reaction ([3]; after a single dose, p=0.0036) [mm] | average difference in injection site reaction, HER2 3+ vs HER2 1-2+ control patients ([3]; over all 10 doses, HER2 3+ smaller) [mm] | patients with injection site reactions (breast cancer patients) [%] | Time to Recurrence ([1]; individual patients who experienced breast cancer recurrence) | patients reacting to GP2 at baseline (positive DTH, induration of 5 mm or greater) ([2]; baseline, prior to any GP2 treatment, all patients (33/145)) [%] | patients with positive baseline DTH response to GP2 in subgroup with later breast cancer recurrence ([2]; baseline, recurrence subgroup (8/22)) [%] | 6 Month DTH (mm) ([2]; individual recurring patients, after 6 months of treatment) | Baseline DTH (mm) ([2]; individual recurring patients, prior to exposure to study medication) |
| --- | --- | --- | --- | --- | --- | --- | --- | --- | --- | --- |
| granulocyte-macrophage colony-stimulating factor [GM-CSF] | 89.4 | 0.0 | 7.8 | 43.1 | ~100 | – | – | – | – | – |
| Ile Ile Ser Ala Val Val Gly Ile Leu (IISAVVGIL) [GP2] | – | – | – | – | – | 28 days and 99 days and 66 days and 820 days and 265 days and 498 days and 507 days and 366 days and 590 days and 141 days and 79 days and 76 days and 1295 days | 22.8 | 36.4 | 24 mm and 20 mm and 16 mm and 15 mm and 3 mm and 0 mm and 25 mm | 9 mm and 8 mm and 7 mm and 0 mm (8×) and 43 mm and 13 mm |
